These results are taken from patent US20160287589A1, “SUBSTITUTED-IMIDAZOPYRIDAZINES” (BAYER PHARMA AKTIENGESELLSCHAFT, priority 2013, published 2016).

Assay [1] addresses T1, MKNK1 (Homo sapiens, UniProt Q9BUB5, T385D).
T1 construct: GST (N); purchased Carna Biosciences 02-145; host or cells: insect cells (baculovirus expression system)
The assay is described as follows: MKNK1 kinase assay (MKNK1 TR-FRET assay). Format: biochemical. The note with it: 10 μM ATP, 15 min preincubation.

Assay [2] addresses T1, MKNK1. The assay is described as follows: MKNK1 kinase high ATP assay (TR-FRET-based). Format: biochemical. Conditions: 2 mM ATP, 15 min preincubation. The procedure, abridged:
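TR-FRET read-out (anti-phospho-S6 Ser236 antibody, Eu/XL665) of biotin-peptide phosphorylation (0.06 μM) at high ATP (2 mM final). Enzyme was GST-MKNK1 full length, T344D, pre-bound to compound for 15 min before a 30 min reaction at 22 °C, pH 7.5. Inhibition scaled between no-inhibitor (0%) and no-enzyme (100%) wells.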
Background: Time-resolved FRET reads energy transfer from a long-lived donor to a nearby acceptor.

T1 sequence (Q9BUB5 1-424 isoform Q9BUB5-2 T344D): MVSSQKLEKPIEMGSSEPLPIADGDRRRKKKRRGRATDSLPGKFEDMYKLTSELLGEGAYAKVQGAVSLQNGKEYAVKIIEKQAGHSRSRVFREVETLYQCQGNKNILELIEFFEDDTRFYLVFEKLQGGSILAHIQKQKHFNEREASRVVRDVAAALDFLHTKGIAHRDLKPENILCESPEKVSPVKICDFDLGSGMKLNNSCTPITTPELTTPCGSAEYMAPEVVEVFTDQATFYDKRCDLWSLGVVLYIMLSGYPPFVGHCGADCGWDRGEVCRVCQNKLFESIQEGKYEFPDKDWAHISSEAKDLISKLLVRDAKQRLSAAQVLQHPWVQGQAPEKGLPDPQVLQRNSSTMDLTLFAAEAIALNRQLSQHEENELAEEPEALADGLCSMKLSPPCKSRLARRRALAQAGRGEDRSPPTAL

The term IC50 denotes the midpoint of a concentration-inhibition curve. `C[C@H](N)COc1ccc2ncc(-c3cc4c(N5CCOCC5)nccc4o3)n2n1` [III-7, (2S)-1-({3-[4-(Morpholin-4-yl)furo[3,2-c]pyridin-2-yl]imidazo[1,2-b]pyridazin-6-yl}oxy)propan-2-amine]: the IC50 was determined as 11.6 nM in assay [1] (Table 1c) and 21.7 nM in assay [2] (Table 2c).
Take `CC(C)(C)OC(=O)N1CCN(c2nccc3oc(-c4cnc5ccc(OCCCS(C)(=O)=O)nn45)cc23)CC1` [III-49, tert-Butyl 4-(2-{6-[3-(methylsulfonyl)propoxy]imidazo[1,2-b]pyridazin-3-yl}furo[3,2-c]pyridin-4-yl)piperazine-1-carboxylate]: the IC50 in assay [1] (Table 1c) worked out at 21.3 nM; in assay [2] (Table 2c) it was 38.5 nM.
With `CC(=O)N1CCC[C@H]1CCOc1ccc2ncc(-c3cc4cnccc4o3)n2n1` [IV-1, 1-[(2S)-2-(2-{[3-(Furo[3,2-c]pyridin-2-yl)imidazo[1,2-b]pyridazin-6-yl]oxy}ethyl)pyrrolidin-1-yl]ethanone], the IC50 turned out to be 5 nM in assay [1] (Table 1d) and 12 nM in assay [2] (Table 2d).
Regarding `COc1nccc2oc(-c3cnc4ccc(OC[C@H]5CN(C(=O)C(F)(F)F)CCO5)nn34)cc12` [IV-10, 2,2,2-Trifluoro-1-[(2R)-2-({[3-(4-methoxyfuro[3,2-c]pyridin-2-yl)imidazo-[1,2-b]pyridazin-6-yl]oxy}methyl)morpholin-4-yl]ethanone], the IC50 in assay [1] (Table 1d) stood at 7 nM; in assay [2] (Table 2d), 17 nM.
Regarding `C[C@@H](N)COc1ccc2ncc(-c3cc4c(N5CCC(CO)CC5)nccc4o3)n2n1` [III-2, {1-[2-(6-{[(2R)-2-Aminopropyl]oxy}imidazo[1,2-b]pyridazin-3-yl)furo[3,2-c]pyridin-4-yl]piperidin-4-yl}methanol], the IC50 in assay [1] (Table 1c) and in assay [2] (Table 2c) was 1.8 nM throughout.
Regarding `C[C@H](N)COc1ccc2ncc(-c3cc4c(N5CCN(C(=O)OC(C)(C)C)CC5)nccc4o3)n2n1` [III-15, tert-Butyl 4-[2-(6-{[(2S)-2-aminopropyl]oxy}imidazo[1,2-b]pyridazin-3-yl)furo[3,2-c]pyridin-4-yl]piperazine-1-carboxylate], the results for the IC50 in assay [1] (Table 1c) and in assay [2] (Table 2c) were 31 nM and 78.4 nM, respectively.
As for `CC1(C)CN(c2cccc3oc(-c4cnc5ccc(OC[C@H]6CCC(=O)N6)nn45)cc23)CCN1` [II-46, (5R)-5-[({3-[4-(3,3-dimethylpiperazin-1-yl)-1-benzofuran-2-yl]imidazo[1,2-b]pyridazin-6-yl}oxy)methyl]pyrrolidin-2-one], the IC50 in assay [1] (Table 1b) was 1.4 nM; in assay [2] (Table 2b), 0.2 nM.
Consider `C[C@H](N)COc1ccc2ncc(-c3cc4c(N5CCOC(C)(C)C5)cccc4o3)n2n1` [II-61, (2S)-1-({3-[4-(2,2-dimethylmorpholin-4-yl)-1-benzofuran-2-yl]imidazo[1,2-b]pyridazin-6-yl}oxy)propan-2-amine], for which the IC50 came to 23.6 nM in assay [1] (Table 1b) and 66.2 nM in assay [2] (Table 2b).
On to `CS(=O)(=O)CCCOc1ccc2ncc(-c3cc4c(N5CCN(c6ccccc6)CC5)cccc4o3)n2n1` [II-12, 6-[3-(Methylsulfonyl)propoxy]-3-[4-(4-phenylpiperazin-1-yl)-1-benzofuran-2-yl]-imidazo[1,2-b]pyridazine], for which the IC50 in assay [1] (Table 1b) came to 24 nM; in assay [2] (Table 2b), 67 nM.
`O=C1CNC[C@H](COc2ccc3ncc(-c4cc5ccccc5o4)n3n2)N1` [Example I-42, (6R)-6-({[3-(1-Benzofuran-2-yl)imidazo[1,2-b]pyridazin-6yl]oxy}methyl)-piperazin-2-one]: the 50% inhibitory concentration (IC50) in assay [1] (Table 1a) amounted to 14.2 nM; in assay [2] (Table 2a), 26.8 nM.
`CC1(C)CN(c2nccc3oc(-c4cnc5ccc(OC[C@@H]6CCC(=O)N6)nn45)cc23)CCO1` [III-132, (5S)-5-[({3-[4-(2,2-dimethylmorpholin-4-yl)furo[3,2-c]pyridin-2-yl]imidazo[1,2-b]pyridazin-6-yl}oxy)methyl]pyrrolidin-2-one]: the IC50 in assay [1] (Table 1c) turned out to be 6.8 nM; in assay [2] (Table 2c), 2.5 nM.
The like results for `C[C@H](N)COc1ccc2ncc(-c3cc4c(N5CCN(c6ccccc6)CC5)nccc4o3)n2n1` [III-23, (2S)-1-({3-[4-(4-Phenylpiperazin-1-yl)furo[3,2-c]pyridin-2-yl]imidazo[1,2-b]pyridazin-6-yl}oxy)propan-2-amine] were, in that order, 16.6 nM and 45 nM.
Take `O=C(c1ccccn1)N1CCC[C@H]1CCOc1ccc2ncc(-c3cc4ccccc4o3)n2n1` [Example I-62, [(2S)-2-(2-{[3-(1-Benzofuran-2-yl)imidazo[1,2-b]-pyridazin-6-yl]oxy}ethyl)pyrrolidin-1-yl](pyridin-2-yl)methanone]: the IC50 was 3.5 nM in assay [1] (Table 1a) and 6.8 nM in assay [2] (Table 2a).
As for `CC(C)(C)N1CCN(c2nccc3oc(-c4cnc5ccc(OCCCS(C)(=O)=O)nn45)cc23)CC1` [III-48, 3-[4-(4-tert-Butylpiperazin-1-yl)furo[3,2-c]pyridin-2-yl]-6-[3-(methylsulfonyl)-propoxy]imidazo[1,2-b]pyridazine], the values for the IC50 in assay [1] (Table 1c) and in assay [2] (Table 2c) were 11.9 nM and 32.1 nM, respectively.
For `CN(C)C1CCN(c2nccc3oc(-c4cnc5ccc(OC[C@H]6CCC(=O)N6)nn45)cc23)CC1` [III-74, (5R)-5-{[(3-{4-[4-(Dimethylamino)piperidin-1-yl]furo[3,2-c]pyridin-2-yl}imidazo[1,2-b]pyridazin-6-yl)oxy]methyl}pyrrolidin-2-one] the same measures were 1 nM and 1.5 nM.
As for `COCCN(C)c1nccc2oc(-c3cnc4ccc(OC[C@H](C)N)nn34)cc12` [III-16, 2-(6-{[(2S)-2-Aminopropyl]oxy}imidazo[1,2-b]pyridazin-3-yl)-N-(2-methoxyethyl)-N-methylfuro[3,2-c]pyridin-4-amine], the IC50 was 2.1 nM in assay [1] (Table 1c) and 6 nM in assay [2] (Table 2c).
On to `COCCN(C)c1nccc2oc(-c3cnc4ccc(OCCCS(C)(=O)=O)nn34)cc12` [III-52, N-(2-Methoxyethyl)-N-methyl-2-{6-[3-(methylsulfonyl)propoxy]imidazo[1,2-b]pyridazin-3-yl}furo[3,2-c]pyridin-4-amine], for which the IC50 is 1.8 nM in assay [1] (Table 1c) and 3.7 nM in assay [2] (Table 2c).
On to `NC(=O)COc1ccc2ncc(-c3cc4ccccc4o3)n2n1` [Example I-24, 2-{[3-(1-Benzofuran-2-yl)imidazo[1,2-b]pyridazin-6-yl]oxy}acetamide], for which the results for the IC50 in assay [1] (Table 1a) and in assay [2] (Table 2a) were 12.5 nM and 20.7 nM, respectively.
Take `O=C(N[C@H]1C[C@H](Oc2ccc3ncc(-c4cc5ccccc5o4)n3n2)C1)C(F)(F)F` [Example I-23, N-(trans-3-{[3-(1-Benzofuran-2-yl)imidazo[1,2-b]pyridazin-6-yl]oxy}cyclobutyl)-2,2,2-trifluoroacetamide]: the IC50 in assay [1] (Table 1a) is 15.7 nM; in assay [2] (Table 2a), 18.8 nM.
For the molecule `CCN(CCOC)c1nccc2oc(-c3cnc4ccc(O[C@H]5Cc6ccccc6[C@@H]5N)nn34)cc12` [III-111, 2-(6-{[(1S,2S)-1-Amino-2,3-dihydro-1H-inden-2-yl]oxy}imidazo[1,2-b]pyridazin-3-yl)-N-ethyl-N-(2-methoxyethyl)furo[3,2-c]pyridin-4-amine], the IC50 in assay [1] (Table 1c) worked out at 3.8 nM; in assay [2] (Table 2c), 42.2 nM.
In the case of `O=C(N[C@H]1C[C@H](Oc2ccc3ncc(-c4cc5ccccc5o4)n3n2)C1)C1CC1` [Example I-5, N-(trans-3-{[3-(1-Benzofuran-2-yl)imidazo[1,2-b]pyridazin-6-yl]oxy}cyclobutyl)-cyclopropanecarboxamide], the IC50 in assay [1] (Table 1a) was found to be 5.3 nM; in assay [2] (Table 2a), 8.9 nM.
The like results for `CC(=O)NCCOc1ccc2ncc(-c3cc4ccccc4o3)n2n1` [Example I-28, N-(2-{[3-(1-Benzofuran-2-yl)imidazo[1,2-b]pyridazin-6-yl]oxy}ethyl)acetamide] were, in that order, 9.1 nM and 29.8 nM.
Regarding `C[C@H](N)COc1ccc2ncc(-c3cc4c(N5CCO[C@@H](C)C5)cccc4o3)n2n1` [II-67, (2S)-1-[(3-{4-[(2S)-2-methylmorpholin-4-yl]-1-benzofuran-2-yl}imidazo[1,2-b]pyridazin-6-yl)oxy]propan-2-amine], the values for the half-inhibitory concentration (IC50) in assay [1] (Table 1b) and in assay [2] (Table 2b) were 23.5 nM and 56.3 nM, respectively.
`c1cc2oc(-c3cnc4ccc(OC[C@@H]5COCCN5)nn34)cc2c(N2CCOCC2)n1` [III-36, 3-[4-(Morpholin-4-yl)furo[3,2-c]pyridin-2-yl]-6-[(3S)-morpholin-3-ylmethoxy]imidazo[1,2-b]pyridazine]: the IC50 turned out to be 11.6 nM in assay [1] (Table 1c) and 37.3 nM in assay [2] (Table 2c).
On to `O=C(CC1CC1)NCCOc1ccc2ncc(-c3cc4ccccc4o3)n2n1` [Example I-76, N-(2-{[3-(1-Benzofuran-2-yl)imidazo[1,2-b]-pyridazin-6-yl]oxy}ethyl)-2-cyclopropylacetamide], for which the values for the concentration for half-maximal inhibition (IC50) in assay [1] (Table 1a) and in assay [2] (Table 2a) were 7.3 nM and 21.1 nM, respectively.
Take `C[C@H](N)COc1ccc2ncc(-c3cc4c(N5CCO[C@H](C)C5)cccc4o3)n2n1` [II-70, (2S)-1-[(3-{4-[(2R)-2-methylmorpholin-4-yl]-1-benzofuran-2-yl}imidazo[1,2-b]pyridazin-6-yl)oxy]propan-2-amine]: the values for the IC50 in assay [1] (Table 1b) and in assay [2] (Table 2b) were 41.4 nM and 49.2 nM, respectively.
Turning to `CCN(CCOC)c1nccc2oc(-c3cnc4ccc(OC[C@@H]5COCCN5)nn34)cc12` [III-35, N-Ethyl-N-(2-methoxyethyl)-2-{6-[(3S)-morpholin-3-ylmethoxy]imidazo[1,2-b]pyridazin-3-yl}furo[3,2-c]pyridin-4-amine], the figures for the IC50 in assay [1] (Table 1c) and in assay [2] (Table 2c) were 1 nM and 0.9 nM, respectively.
